In article PMC8333425, “Discovery of a dual Ras and ARF6 inhibitor from a GPCR endocytosis screen” (Nature Communications, 2021):

Legend:
Test in all cases: KINOMEscan kinase binding assay
[1] = target: T1, 384 kinases from the human genome (Homo sapiens, UniProt Q86V86); conditions: kinase PIM3 (Entrez PIM3)
T1 construct: purchased Eurofin/DiscoverX
Summary of the method: (§1)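 A panel of 384 human kinases was profiled by KINOMEscan binding in the presence of 10 µM compound. Kinase–ligand binding was given as percent of DMSO control, averaged from duplicates in a single run, with an S(10) selectivity score.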

[2] = target: T2, 384 kinases from the human genome (Homo sapiens, UniProt Q9H2G2); conditions: kinase SLK (Entrez SLK)
T2 construct: purchased Eurofin/DiscoverX
T2 sequence (Q9H2G2 whole entry): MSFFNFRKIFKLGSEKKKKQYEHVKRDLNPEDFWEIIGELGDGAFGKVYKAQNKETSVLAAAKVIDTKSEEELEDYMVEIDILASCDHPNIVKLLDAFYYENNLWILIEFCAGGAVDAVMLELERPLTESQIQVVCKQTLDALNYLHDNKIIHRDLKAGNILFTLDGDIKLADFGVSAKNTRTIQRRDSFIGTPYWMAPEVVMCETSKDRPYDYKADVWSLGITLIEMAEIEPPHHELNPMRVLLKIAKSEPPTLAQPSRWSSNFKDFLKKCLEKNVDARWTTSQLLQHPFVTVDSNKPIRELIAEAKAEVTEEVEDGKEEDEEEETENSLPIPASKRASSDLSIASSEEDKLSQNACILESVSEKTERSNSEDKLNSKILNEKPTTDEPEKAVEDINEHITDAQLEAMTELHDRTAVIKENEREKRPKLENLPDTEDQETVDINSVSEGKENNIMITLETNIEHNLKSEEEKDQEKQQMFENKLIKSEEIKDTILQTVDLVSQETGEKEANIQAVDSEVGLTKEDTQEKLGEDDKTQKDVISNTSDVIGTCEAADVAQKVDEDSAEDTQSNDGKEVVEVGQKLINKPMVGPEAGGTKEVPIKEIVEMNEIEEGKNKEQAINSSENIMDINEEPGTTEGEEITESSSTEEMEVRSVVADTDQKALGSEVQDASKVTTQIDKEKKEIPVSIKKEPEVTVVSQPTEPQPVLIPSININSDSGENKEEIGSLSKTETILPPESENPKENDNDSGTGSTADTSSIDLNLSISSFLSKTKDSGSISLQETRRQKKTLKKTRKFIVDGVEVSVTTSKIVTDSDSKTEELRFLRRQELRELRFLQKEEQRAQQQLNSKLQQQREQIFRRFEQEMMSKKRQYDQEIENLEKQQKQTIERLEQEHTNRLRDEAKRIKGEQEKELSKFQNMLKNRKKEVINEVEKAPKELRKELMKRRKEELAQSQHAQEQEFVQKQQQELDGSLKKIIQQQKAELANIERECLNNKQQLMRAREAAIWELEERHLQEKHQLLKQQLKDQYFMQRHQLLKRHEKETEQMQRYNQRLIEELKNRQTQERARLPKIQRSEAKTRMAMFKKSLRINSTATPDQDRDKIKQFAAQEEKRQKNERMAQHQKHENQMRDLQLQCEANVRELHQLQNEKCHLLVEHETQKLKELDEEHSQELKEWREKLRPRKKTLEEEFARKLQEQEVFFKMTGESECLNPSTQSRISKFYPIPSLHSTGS
Summary of the method: as §1

[3] = target: T3, 384 kinases from the human genome (Homo sapiens, UniProt Q16539); conditions: kinase p38-alpha (Entrez MAPK14)
T3 construct: purchased Eurofin/DiscoverX
Summary of the method: as §1

[4] = target: T4, 384 kinases from the human genome (Homo sapiens, UniProt Q86Y07); conditions: kinase VRK2 (Entrez VRK2)
T4 construct: purchased Eurofin/DiscoverX
Summary of the method: as §1

[5] = target: T5, 384 kinases from the human genome (Homo sapiens, UniProt Q16512); conditions: kinase PKN1 (Entrez PKN1)
T5 construct: purchased Eurofin/DiscoverX
Summary of the method: as §1

[6] = target: T6, 384 kinases from the human genome (Homo sapiens, UniProt Q6XUX3); conditions: kinase RIPK5 (Entrez DSTYK)
T6 construct: purchased Eurofin/DiscoverX
Summary of the method: as §1

[7] = target: T7, 384 kinases from the human genome (Homo sapiens, UniProt P41743); conditions: kinase PRKCI (Entrez PRKCI)
T7 construct: purchased Eurofin/DiscoverX
T7 sequence (P41743 whole entry): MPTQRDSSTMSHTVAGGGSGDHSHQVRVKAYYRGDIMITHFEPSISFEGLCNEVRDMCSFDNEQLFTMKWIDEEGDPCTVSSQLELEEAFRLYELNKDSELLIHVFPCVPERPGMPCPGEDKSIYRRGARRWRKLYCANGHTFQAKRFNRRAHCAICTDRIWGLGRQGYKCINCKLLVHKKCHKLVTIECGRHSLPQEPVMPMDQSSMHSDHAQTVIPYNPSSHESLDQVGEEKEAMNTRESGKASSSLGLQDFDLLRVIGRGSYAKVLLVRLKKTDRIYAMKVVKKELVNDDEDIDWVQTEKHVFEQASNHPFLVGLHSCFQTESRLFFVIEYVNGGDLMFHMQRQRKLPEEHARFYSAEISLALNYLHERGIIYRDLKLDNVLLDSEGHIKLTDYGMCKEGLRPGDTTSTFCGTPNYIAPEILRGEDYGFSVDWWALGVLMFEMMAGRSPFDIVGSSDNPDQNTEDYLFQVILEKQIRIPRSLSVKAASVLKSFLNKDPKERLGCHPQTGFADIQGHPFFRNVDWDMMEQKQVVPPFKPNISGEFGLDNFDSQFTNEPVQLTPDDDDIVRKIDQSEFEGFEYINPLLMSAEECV
Summary of the method: as §1

[8] = target: T8, 384 kinases from the human genome (Homo sapiens, UniProt Q16816); conditions: kinase PHKG1 (Entrez PHKG1)
T8 construct: purchased Eurofin/DiscoverX
Summary of the method: as §1

[9] = target: T9, 384 kinases from the human genome (Homo sapiens, UniProt Q9H422); conditions: kinase HIPK3 (Entrez HIPK3)
T9 construct: purchased Eurofin/DiscoverX
Summary of the method: as §1

[10] = target: T10, 384 kinases from the human genome (Homo sapiens, UniProt P51817); conditions: kinase PRKX (Entrez PRKX)
T10 construct: purchased Eurofin/DiscoverX
T10 sequence (P51817 whole entry): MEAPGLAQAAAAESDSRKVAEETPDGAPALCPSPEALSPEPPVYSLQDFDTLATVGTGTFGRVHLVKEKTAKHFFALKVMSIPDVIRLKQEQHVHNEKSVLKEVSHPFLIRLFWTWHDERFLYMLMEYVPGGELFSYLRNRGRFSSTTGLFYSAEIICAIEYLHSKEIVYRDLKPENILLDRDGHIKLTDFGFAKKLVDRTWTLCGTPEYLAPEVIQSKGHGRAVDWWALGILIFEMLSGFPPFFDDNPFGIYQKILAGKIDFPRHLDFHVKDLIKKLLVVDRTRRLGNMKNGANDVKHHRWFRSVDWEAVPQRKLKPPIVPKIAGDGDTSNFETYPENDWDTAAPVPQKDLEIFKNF
Summary of the method: as §1

[11] = target: T11, 384 kinases from the human genome (Homo sapiens, UniProt P29376); conditions: kinase LTK (Entrez LTK)
T11 construct: purchased Eurofin/DiscoverX
Summary of the method: as §1

[12] = target: T12, 384 kinases from the human genome (Homo sapiens, UniProt Q8N5S9); conditions: kinase CAMKK1 (Entrez CAMKK1)
T12 construct: purchased Eurofin/DiscoverX
Summary of the method: as §1

[13] = target: T13, 384 kinases from the human genome (Homo sapiens, UniProt Q9BXA7); conditions: kinase TSSK1B (Entrez TSSK1B)
T13 construct: purchased Eurofin/DiscoverX
T13 sequence (Q9BXA7 whole entry): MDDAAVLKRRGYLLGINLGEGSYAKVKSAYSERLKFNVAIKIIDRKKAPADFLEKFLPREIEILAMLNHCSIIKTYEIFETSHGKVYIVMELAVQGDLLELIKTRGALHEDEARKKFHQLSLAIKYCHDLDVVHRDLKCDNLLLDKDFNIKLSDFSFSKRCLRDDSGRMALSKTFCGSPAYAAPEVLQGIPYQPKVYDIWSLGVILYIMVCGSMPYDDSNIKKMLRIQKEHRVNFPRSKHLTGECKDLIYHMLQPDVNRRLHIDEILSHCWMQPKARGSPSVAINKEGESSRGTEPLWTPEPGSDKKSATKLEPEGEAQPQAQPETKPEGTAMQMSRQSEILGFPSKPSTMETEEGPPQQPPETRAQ
Summary of the method: as §1

[14] = target: T14, 384 kinases from the human genome (Homo sapiens, UniProt P19784); conditions: kinase CSNK2A2 (Entrez CSNK2A2)
T14 construct: purchased Eurofin/DiscoverX
Summary of the method: as §1

[15] = target: T15, 384 kinases from the human genome (Homo sapiens, UniProt Q96GD4); conditions: kinase AURKB (Entrez AURKB)
T15 construct: purchased Eurofin/DiscoverX
Summary of the method: as §1

[16] = target: T16, 384 kinases from the human genome (Homo sapiens, UniProt Q07912); conditions: kinase TNK2 (Entrez TNK2)
T16 construct: purchased Eurofin/DiscoverX
Summary of the method: as §1

[17] = target: T17, 384 kinases from the human genome (Homo sapiens, UniProt O00329); conditions: kinase PIK3CD (Entrez PIK3CD)
T17 construct: purchased Eurofin/DiscoverX
Summary of the method: as §1

[18] = target: T18, 384 kinases from the human genome (Homo sapiens, UniProt P43405); conditions: kinase SYK (Entrez SYK)
T18 construct: purchased Eurofin/DiscoverX
Summary of the method: as §1

[19] = target: T19, 384 kinases from the human genome (Homo sapiens, UniProt O00238); conditions: kinase BMPR1B (Entrez BMPR1B)
T19 construct: purchased Eurofin/DiscoverX
Summary of the method: as §1

[20] = target: T20, 384 kinases from the human genome (Homo sapiens, UniProt Q9BZL6); conditions: kinase PRKD2 (Entrez PRKD2)
T20 construct: purchased Eurofin/DiscoverX
Summary of the method: as §1

[21] = target: T21, 384 kinases from the human genome (Homo sapiens, UniProt Q02750); conditions: kinase MEK1 (Entrez MAP2K1)
T21 construct: purchased Eurofin/DiscoverX
Summary of the method: as §1

[22] = target: T22, 384 kinases from the human genome (Homo sapiens, UniProt Q9HBY8); conditions: kinase SGK2 (Entrez SGK2)
T22 construct: purchased Eurofin/DiscoverX
Summary of the method: as §1

[23] = target: T23, 384 kinases from the human genome (Homo sapiens, UniProt O43293); conditions: kinase DAPK3 (Entrez DAPK3)
T23 construct: purchased Eurofin/DiscoverX
Summary of the method: as §1

[24] = target: T24, 384 kinases from the human genome (Homo sapiens, UniProt Q8IY84); conditions: kinase NIM1 (Entrez MGC42105)
T24 construct: purchased Eurofin/DiscoverX
T24 sequence (Q8IY84 whole entry): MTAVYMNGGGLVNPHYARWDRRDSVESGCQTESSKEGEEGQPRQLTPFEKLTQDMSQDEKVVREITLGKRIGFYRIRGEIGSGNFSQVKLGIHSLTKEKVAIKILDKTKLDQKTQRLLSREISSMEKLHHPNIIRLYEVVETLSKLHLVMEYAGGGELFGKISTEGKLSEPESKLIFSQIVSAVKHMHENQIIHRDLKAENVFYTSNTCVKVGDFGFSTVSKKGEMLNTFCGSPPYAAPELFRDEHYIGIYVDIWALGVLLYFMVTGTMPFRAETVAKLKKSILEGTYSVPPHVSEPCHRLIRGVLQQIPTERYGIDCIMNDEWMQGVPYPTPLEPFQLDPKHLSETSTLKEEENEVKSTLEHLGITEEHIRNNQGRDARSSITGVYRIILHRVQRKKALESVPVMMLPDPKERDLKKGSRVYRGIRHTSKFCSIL
Summary of the method: as §1

[25] = target: T25, 384 kinases from the human genome (Homo sapiens, UniProt Q6ZN16); conditions: kinase MAP3K15 (Entrez MAP3K15)
T25 construct: purchased Eurofin/DiscoverX
Summary of the method: as §1

[26] = target: T26, 384 kinases from the human genome (Homo sapiens, UniProt Q5VT25); conditions: kinase MRCKA (Entrez CDC42BPA)
T26 construct: purchased Eurofin/DiscoverX
T26 sequence (Q5VT25 whole entry): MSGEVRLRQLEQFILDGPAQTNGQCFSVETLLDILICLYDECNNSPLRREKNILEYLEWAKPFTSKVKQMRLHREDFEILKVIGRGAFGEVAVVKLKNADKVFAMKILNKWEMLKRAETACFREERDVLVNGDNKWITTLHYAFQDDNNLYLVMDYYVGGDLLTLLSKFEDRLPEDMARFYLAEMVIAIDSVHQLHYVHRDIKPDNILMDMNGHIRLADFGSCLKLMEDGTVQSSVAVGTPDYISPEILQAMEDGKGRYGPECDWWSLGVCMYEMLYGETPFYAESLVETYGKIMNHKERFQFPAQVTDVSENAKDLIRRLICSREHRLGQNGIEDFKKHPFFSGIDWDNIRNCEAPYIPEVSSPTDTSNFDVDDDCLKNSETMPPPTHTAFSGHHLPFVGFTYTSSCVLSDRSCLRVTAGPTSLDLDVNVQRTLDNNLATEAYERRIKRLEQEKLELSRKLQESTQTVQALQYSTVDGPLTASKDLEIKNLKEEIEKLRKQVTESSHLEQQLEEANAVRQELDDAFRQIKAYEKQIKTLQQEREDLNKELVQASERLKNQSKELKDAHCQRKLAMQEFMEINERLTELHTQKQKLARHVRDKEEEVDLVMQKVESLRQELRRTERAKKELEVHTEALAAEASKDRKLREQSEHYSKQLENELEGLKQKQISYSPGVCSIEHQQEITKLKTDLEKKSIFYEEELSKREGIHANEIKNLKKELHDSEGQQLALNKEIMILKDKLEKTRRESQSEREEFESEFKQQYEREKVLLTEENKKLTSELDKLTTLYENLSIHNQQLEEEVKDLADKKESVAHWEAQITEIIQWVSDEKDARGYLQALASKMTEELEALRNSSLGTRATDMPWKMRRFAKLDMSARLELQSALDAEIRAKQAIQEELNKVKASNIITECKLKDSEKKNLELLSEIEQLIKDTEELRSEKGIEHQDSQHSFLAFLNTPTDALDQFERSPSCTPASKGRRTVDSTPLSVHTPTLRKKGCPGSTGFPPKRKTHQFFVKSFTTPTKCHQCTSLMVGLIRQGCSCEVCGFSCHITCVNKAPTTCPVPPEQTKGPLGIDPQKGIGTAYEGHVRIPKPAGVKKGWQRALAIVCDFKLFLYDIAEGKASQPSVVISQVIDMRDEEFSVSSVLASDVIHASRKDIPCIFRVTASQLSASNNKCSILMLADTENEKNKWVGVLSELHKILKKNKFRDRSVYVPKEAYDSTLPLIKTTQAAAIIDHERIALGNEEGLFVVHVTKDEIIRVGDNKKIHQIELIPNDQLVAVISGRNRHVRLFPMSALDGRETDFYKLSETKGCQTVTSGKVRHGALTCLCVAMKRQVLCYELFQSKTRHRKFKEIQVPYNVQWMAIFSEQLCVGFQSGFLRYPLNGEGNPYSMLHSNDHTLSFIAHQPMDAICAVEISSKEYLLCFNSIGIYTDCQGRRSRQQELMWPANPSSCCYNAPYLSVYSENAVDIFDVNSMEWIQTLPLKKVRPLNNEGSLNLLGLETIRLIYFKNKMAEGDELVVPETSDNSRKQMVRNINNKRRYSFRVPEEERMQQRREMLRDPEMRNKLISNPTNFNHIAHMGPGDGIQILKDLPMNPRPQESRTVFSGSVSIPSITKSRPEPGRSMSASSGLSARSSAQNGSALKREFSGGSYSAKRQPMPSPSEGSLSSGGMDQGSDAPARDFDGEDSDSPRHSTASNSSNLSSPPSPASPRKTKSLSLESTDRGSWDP
Summary of the method: as §1

CC(C)C(=O)N1CCN(c2ccc(NC(=O)c3cc4ccccc4o3)cc2Cl)CC1 [Compound 21]
Percent Control [1]: 90% | Percent Control [2]: 100% | Percent Control [3]: 100% | Percent Control [4]: 88% | Percent Control [5]: 94% | Percent Control [6]: 78% | Percent Control [7]: 100% | Percent Control [8]: 87% | Percent Control [9]: 93% | Percent Control [10]: 100% | Percent Control [11]: 90% | Percent Control [12]: 100% | Percent Control [13]: 100% | Percent Control [14]: 92% | Percent Control [15]: 83% | Percent Control [16]: 68% | Percent Control [17]: 100% | Percent Control [18]: 98% | Percent Control [19]: 82% | Percent Control [20]: 100% | Percent Control [21]: 76% | Percent Control [22]: 100% | Percent Control [23]: 100% | Percent Control [24]: 77% | Percent Control [25]: 100% | Percent Control [26]: 68%
